In patent US7122573B2, “Analogs of green tea polyphenols as chemotherapeutic and chemopreventive agents” (SRI International, priority 2002, dated 2006):
Blank lines part the entries; values can stand above or below the compound they belong to.

Assays:
Type in all cases: cell-based
[1] = test system: MCF-7 (ER+); assay: Growth inhibition assay (MTT, 8 days) in MCF-7 breast cancer cells
Protocol: (§1) Compounds of the invention were tested for their ability to inhibit growth in two breast cancer cell lines, MCF-7 (ER+) and MDA-MB-231 (ER−).
(§2) The growth inhibition assays were conducted using routine methods. Briefly, the cells were seeded in 24-well plates at a density of 2000 cells per well in 200 μL of […] growth medium. To each well was added 10 μL of DMSO containing the dissolved test compound; final DMSO concentration in each well was not more than 0.5%. Each test compound was assayed at concentrations of 0.4, 2, 10, and 50 μM. The plates were incubated for eight days, with the media and test solutions replaced every third day. On Day 8, the viable cells were measured by the MTT assay, as described in Mosmann et al. (1983), “Rapid Colorimetric Assay for Cellular Growth and Survival: Application to Proliferation and Cytotoxicity,” J. Immunol. Method. 65:55–63. The optical density at 575 nm of each test well was measured and compared to that for control wells, and the data used to calculate the percentage of growth inhibition at different concentrations. The IC50 value (the concentration of growth inhibitor that results in 50% growth inhibition of the cells in culture relative to control cells not exposed to any growth inhibitor) was determined by plotting dose-response curves.
(§3) The calculated IC50 values are set forth in Table 1, with the results representing the average of at least two experiments conducted for each compound at each of the four concentrations.

[2] = test system: MDA-MB-231 (ER−); assay: Growth inhibition assay (MTT, 8 days) in MDA-MB-231 breast cancer cells
Protocol: as §1, §2, §3

[3] = test system: human lung tumor cells (A427); assay: Anchorage-independent growth inhibition assay (colony formation in soft agar)
Protocol: (§4) An anchorage-independent growth inhibition assay was performed as described in Korytynski, et al. (1996) “The development of an anchorage-independence assay using human lung tumor cells to screen potential chemopreventive agents,” Anticancer Res. 16, 1091–1094; and Sharma, et al. (1997) “The anchorage-independent assay as a screening tool to identify potential chemopreventive agents,” Methods Cell Sci. 19, 9–12. The assay measures the inhibition of colony formation of human lung tumor cells (A427) cells grown in soft agar. In this assay, A427 cells were grown in the presence of the test agent, SR 13196, EGCG or 13-cis-RA Control samples were tested using an equivalent volume of DMSO alone. A concurrent assay for cell survival was also performed.

[4] = test system: human lung tumor cells (A427); assay: Concurrent assay for cell survival; settings: for surviving cells: highest concentration tested (25 μM)
Protocol: as §4

[5] = Table 1, MTT on Day 8, average of at least two experiments
[6] = Table 2, procedures repeated with additional compounds
[7] = Homo sapiens, MCF7, Table 2, procedures repeated with additional compounds
[8] = Homo sapiens, MDA-MB-231, Table 2, procedures repeated with additional compounds

Compound: CC1=C(/C=C/C(C)=C/C=C/C(C)=C\C(=O)O)C(C)(C)CCC1 [13-cis-RA]
% Inhibition (colony formation) ([3]; 1.56 μM): 8%
Observed Colonies ([3]; 1.56 μM): 310
% Inhibition (colony formation) ([3]; 3.12 μM): 16%
Observed Colonies ([3]; 3.12 μM): 269
% Inhibition (colony formation) ([3]; 6.25 μM): 28%
Observed Colonies ([3]; 6.25 μM): 206
% Inhibition (colony formation) ([3]; 12.5 μM): 35%
Observed Colonies ([3]; 12.5 μM): 179
% Inhibition (colony formation) ([3]; 25 μM): 43%
Observed Colonies ([3]; 25 μM): 142
Surviving Fraction ([4]; 1.56 μM): 0.85
Surviving Fraction ([4]; 3.12 μM): 0.82
Surviving Fraction ([4]; 6.25 μM): 0.83
Surviving Fraction ([4]; 12.5 μM): 0.74
Surviving Fraction ([4]; 25 μM): 0.68
surviving cells [4]: 68%

Compound: Oc1cc(O)c2c(c1)O[C@H](c1cc(O)c(O)c(O)c1)[C@H](O)C2 [EGC (2,3-cis), (−)-epigallocatechin]
IC50 [1, 5]: 29.8 µM
IC50 [2, 5]: 27.3 µM

Compound: O=C(O[C@@H]1Cc2c(O)cc(O)cc2O[C@@H]1c1cc(O)c(O)c(O)c1)c1cc(O)c(O)c(O)c1 [EGCG, (−)-epigallocatechin-3-gallate]
IC50 [1, 5]: 8.22 µM
IC50 [1, 6]: 16.8 µM
IC50 [2, 5]: 11.9 µM
IC50 [2, 6]: 5.76 µM
% Inhibition (colony formation) ([3]; 1.56 μM): 0%
Observed Colonies ([3]; 1.56 μM): 398
% Inhibition (colony formation) ([3]; 3.12 μM): 19%
Observed Colonies ([3]; 3.12 μM): 310
% Inhibition (colony formation) ([3]; 6.25 μM): 25%
Observed Colonies ([3]; 6.25 μM): 282
% Inhibition (colony formation) ([3]; 12.5 μM): 40%
Observed Colonies ([3]; 12.5 μM): 139
% Inhibition (colony formation) ([3]; 25 μM): 50%
Observed Colonies ([3]; 25 μM): 97
Surviving Fraction ([4]; 1.56 μM): 0.99
Surviving Fraction ([4]; 3.12 μM): 0.98
Surviving Fraction ([4]; 6.25 μM): 0.97
Surviving Fraction ([4]; 12.5 μM): 0.85
Surviving Fraction ([4]; 25 μM): 0.39
surviving cells [4]: 39%

Compound: trans-5,7-DIMETHYL-2-(3,4,5-TRIHYDROXY-PHENYL)-3,4-DIHYDRO-2H-CHROMAN-3-YL, 3,4,5,-TRIHYDROXY-BENZOIC ACID ESTER [SR 13911]
IC50 [1, 6]: 23.5 µM
IC50 [2, 6]: 42 µM

The next lines start with results.

IC50 ([1]; Homo sapiens, MCF7, 192 h, Table 1, MTT on Day 8, average of at least two experiments): 11.1 µM
IC50 ([2]; Homo sapiens, MDA-MB-231, 192 h, Table 1, MTT on Day 8, average of at least two experiments): 12.7 µM
Compound: COc1cc([C@H]2Oc3cc(O)cc(O)c3C[C@H]2OC(=O)c2cc(C)c(O)c(C)c2)cc(OC)c1OC (relative stereo) [SR 13196]
Observed Colonies ([3]; 1.56 μM): 268
Observed Colonies ([3]; 3.12 μM): 108
Observed Colonies ([3]; 6.25 μM): 38
Observed Colonies ([3]; 12.5 μM): 28
Observed Colonies ([3]; 25 μM): 8
Surviving Fraction ([4]; 1.56 μM): 0.71
Surviving Fraction ([4]; 3.12 μM): 0.41
Surviving Fraction ([4]; 6.25 μM): 0.17
Surviving Fraction ([4]; 12.5 μM): 0.12
Surviving Fraction ([4]; 25 μM): 0.11
surviving cells [4]: 11%

IC50 [1, 7]: 124 µM
IC50 [2, 8]: 55.4 µM
Compound: COc1cc([C@H]2Oc3cc(O)cc(O)c3C[C@H]2OC(=O)c2cc(C)c(O)c(C)c2)cc(OC)c1OC [SR 13197]

IC50 [1, 7]: 58.1 µM
IC50 [2, 8]: 47.9 µM
Compound: COc1cc(OC)c2c(c1)OC(c1cc(O)c(O)c(O)c1)[C@H](OC(=O)c1cc(O)c(O)c(O)c1)C2 (stereo partly drawn) [SR 13198, trans-5,7-DIMETHOXY-2-(3,4,5-TRIHYDROXY-PHENYL)-3,4-DIHYDRO-2H-CHROMAN-3-YL, 3,4,5-TRIHYDROXY-BENZOIC ACID ESTER]

IC50 [1, 7]: 39.6 µM
IC50 [2, 8]: 62.1 µM
Compound: Cc1cc(C)c2c(c1)O[C@H](c1cc(O)c(O)c(O)c1)[C@H](OC(=O)c1cc(O)c(O)c(O)c1)C2 [SR 13912]

IC50 [1, 7]: 16.2 µM
IC50 [2, 8]: 20.1 µM
Compound: Cc1cc(C)c2c(c1)O[C@H](c1cc(O)c(O)c(O)c1)[C@H](OC(=O)c1cc(C)c(O)c(C)c1)C2 [SR 13913]
